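A five-concentration, 48-hour dose response in 96-well plates underlies each endpoint, interpolated linearly between surrounding concentrations. The concentration for 50% growth inhibition is given as GI50. TGI: concentration producing complete growth inhibition.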

Results on nine compounds are retold here after PubChem BioAssay (NCI).

What all share (test): inhibition of tumour cell growth, NCI panel, 48 h
Test [1] concerns K-562 leukemia.
Test [2] relates to HCC-2998 colon.
For test [3], the system named is MCF7 breast.
Test [4] concerns RXF 393 renal.
Test [5] deals with DU-145 prostate.
Test [6] concerns RPMI-8226 leukemia.
For test [7], the system named is OVCAR-8 ovarian.
Test [8] has as its system HCT-15 colon.
For test [9], the system named is SF-295 CNS.
Test [10] concerns HCT-116 colon.

Consider `O=C(Nc1ccc(F)cc1)Nc1ccccc1CNc1nc(Nc2ccc(OCCN3CCCC3)cc2)ncc1Cl`, for which the GI50 in test [1] is 1.2 µM; in [2] it was 2.73 µM; in test [3] it was 1.37 µM; in test [4], 0.895 µM; in [5], 2.48 µM; in test [6], 1.4 µM. Further, the GI50 in test [7] was 1.83 µM; in test [8], 1.58 µM; in [9] it was 1.97 µM. The TGI is 3.06 µM in test [1]; 9.27 µM in test [2]; 4.75 µM in [3]; 1.88 µM in [4]; 8.06 µM in test [5]; 3.72 µM in test [6]. The TGI in [7] turned out to be 12.2 µM; in [8] it was 6.06 µM; in test [9] it was 7.67 µM.
For the compound `Cc1ccc(NC(=O)Cc2ccc(/C=C/C(=O)c3ncc[nH]3)cc2)cc1`, the GI50 in [2] was 6.73 µM; in test [3], 1.15 µM; in test [4], 7.68 µM; in [5], 4.56 µM; in [6] it was 1.79 µM; in [7], 7.24 µM. The GI50 was 2.01 µM in test [8], 7.9 µM in [9] and 3.28 µM in test [10]. The TGI in test [2] is above 25 µM; in test [3], above 25 µM; in [4] it was above 25 µM; in test [5], above 25 µM; in [6], 11.8 µM; in test [7] it was above 25 µM. In addition, the TGI in [8] is 15.6 µM; in [9], above 25 µM; in test [10] it was 9.59 µM.
As for `COc1cc(-c2nc3sccn3c2-c2ccnc(NCCNS(=O)(=O)c3ccc(Cl)cc3)n2)ccc1F`, the GI50 was 2.76 µM in test [1]; 5.82 µM in test [2]; 3.24 µM in test [3]; 1.64 µM in [4]; 3.62 µM in test [5]; 2.71 µM in test [7]. Moreover, the GI50 in test [8] is 3.33 µM; in [9], 4.07 µM; in [10] it was 3.56 µM. Besides, the TGI in test [1], in [2], in test [3], in test [4], in test [5] and in test [7] was above 100 µM each time. In addition, the TGI in [8], in test [9] and in test [10] was above 100 µM in each case.
Take `COc1cc2c(cc1OCCCCCOc1cc3c(cc1OC)C(=O)N1CC(F)C[C@H]1C=N3)N=C[C@@H]1CC(F)CN1C2=O` (stereo partly specified): the GI50 was 0.0325 µM in test [1]; 0.229 µM in test [2]; below 0.0108 µM in test [3]; 0.097 µM in test [5]; below 0.0151 µM in [6]; 0.138 µM in test [7]. Further, the results for the GI50 in [8] and in test [9] were 1.11 µM and below 0.0148 µM, respectively. The TGI came to 1.94 µM in test [1]; 2.89 µM in test [2]; 1.31 µM in test [3]; 2.67 µM in test [5]; 0.0622 µM in [6]; 2.06 µM in test [7]. Further, the values for the TGI in [8] and in test [9] were 3.72 µM and 0.694 µM, respectively.
With `O=c1c2ccccc2c(Br)c(Br)c2ccccc12`, the GI50 in test [2] is 17.3 µM; in test [3], 5.6 µM; in test [4], 3.32 µM; in [5] it was 4.02 µM; in test [6], 2.51 µM; in [7], 13.9 µM. For the same compound, the GI50 was 10.7 µM in test [8], 17.1 µM in test [9] and 4.92 µM in [10]. For the same compound, the TGI was 35.8 µM in test [2]; 46.1 µM in test [3]; 12.7 µM in test [4]; 15.8 µM in test [5]; 5.84 µM in [6]; 34.2 µM in test [7]. Also, the TGI was above 100 µM in [8], 36 µM in test [9] and 29.3 µM in test [10].
Consider `c1ccc2c(c1)sc1c3cnccc3ccc21`, for which the TGI in test [1], in test [2], in [3], in [5], in [6] and in test [8] was above 100 µM in each case. Further, the TGI in [9] and in test [10] was above 100 µM each time.
In the case of `O=C1C2C(C(=O)[N]1[Hg][c]1cccs1)C1(Cl)C(Cl)=C(Cl)C2(Cl)C1(Cl)Cl` (stereo unspecified), the GI50 in test [1] is 0.291 µM; in [2], 1.97 µM; in test [3], 0.386 µM; in test [4] it was 1.5 µM; in test [5], 1.8 µM; in test [6], 1.41 µM. The GI50 in test [8] is 0.821 µM; in test [9] it was 3.11 µM; in test [10] it was 1.25 µM. The TGI in test [1] worked out at 3.41 µM; in test [2] it was 3.59 µM; in [3] it was 1.94 µM; in test [4], 3 µM; in test [5], 4.72 µM; in [6], 6.38 µM. The results for the TGI in [8], in test [9] and in test [10] were 2.27 µM, 8.53 µM and 2.54 µM, respectively.
On to `O=C(Nc1ccccc1)c1nn(-c2cc(S(=O)(=O)O)c([N+](=O)[O-])cc2Cl)[n+](-c2cc(S(=O)(=O)[O-])c([N+](=O)[O-])cc2Cl)n1`, for which the TGI in test [1], in test [2], in test [3], in [4], in test [5] and in [6] was above 100 µM in each case. Further, the TGI in [8], in [9] and in test [10] was above 100 µM throughout.
`COc1cc2c3c(n(CCCN(CCN)CCCn4c5c(c6cc(OC)c(OC)cc6c4=O)C(=O)c4cc6c(cc4-5)OCO6)c(=O)c2cc1OC)-c1cc2c(cc1C3=O)OCO2`: the GI50 in test [1] is 2.73 µM; in test [2] it was 0.407 µM; in [3], 0.376 µM; in test [4], 3.39 µM; in [5] it was 0.663 µM; in [7], 1.53 µM. Further, the GI50 in test [8] was 8.43 µM; in test [9], 0.36 µM; in [10] it was 0.837 µM. Also, the TGI in [1] was above 32.5 µM; in test [2], 5.98 µM; in test [3] it was above 36 µM; in test [4] it was 12.7 µM; in test [5], above 100 µM; in test [7] it was above 42.2 µM. For the same compound, the TGI in test [8] is above 100 µM; in test [9] it was 6.16 µM; in test [10] it was 3.25 µM.
